# In patent publication US4642332A, “Effective hormonal peptides: D-3-Pal^6 -LHRH” (The Board of Regents, The University of Texas System, priority 1985, dated 1987):
# Tested on: 21 day old female rats
# Experiment: In vivo assay in rats for release of LH and FSH
# Set-up: species or system rat
# Details: for Serum FSH ng/ml SEM / Serum LH ng/ml SEM: Table IX, blood sample at ±60 minutes, mean of 6
# Method: In vivo rat assay performed by a modification of the method of Bowers, C. Y. et al. Endocrinology, 106, 674 (1980). 21 day old female rats were injected sc with saline or peptide. Blood samples for the RIAs of LH and FSH were collected at +15, +60, +120, or +180 minutes. (Tables VI-XI).
# [1] = Table XI, 150 ng sc, +2 hrs, mean 5-6
Compound,Serum FSH ng/ml SEM (50 ng/rat sc) [ng/mL],Serum LH ng/ml SEM (50 ng/rat sc) [ng/mL],Serum FSH ng/ml SEM (150 ng/rat sc) [ng/mL],Serum LH ng/ml SEM (150 ng/rat sc) [ng/mL],"LH ng/ml Serum ± SEM ± 15 min (Table VII, dosage 100 mg/rat sc (so in the source), ± 15 min) [ng/mL]","LH ng/ml Serum ± SEM ± 60 min (Table VII, dosage 100 mg/rat sc (so in the source), ± 60 min) [ng/mL]",+2 hrs LH ± SEM ng/ml serum [1] [ng/mL],FSH ± SEM ng/ml serum (+2 hrs) [1] [ng/mL],"+3 hrs LH ± SEM ng/ml serum (Table XI, 150 ng sc, +3 hrs, mean 5-6) [ng/mL]"
"CNC(=O)[C@@H]1CCCN1C(=O)[C@H](CCCNC(=N)N)NC(=O)[C@H](CC(C)C)NC(=O)[C@@H](Cc1cccnc1)NC(=O)[C@H](Cc1ccc(O)cc1)NC(=O)[C@H](CO)NC(=O)[C@H](Cc1c[nH]c2ccccc12)NC(=O)[C@H](Cc1c[nH]cn1)NC(=O)[C@@H]1CCC(=O)N1 [Peptide 21437, pryoGlu-His-Trp-Ser-Tyr-D-3-Pal-Leu-Arg-Pro-NHCH3]",1707 ± 518,47 ± 8,2799 ± 783,111 ± 26,–,–,–,–,–
"CCNC(=O)[C@@H]1CCCN1C(=O)[C@H](CCCNC(=N)N)NC(=O)[C@H](CC(C)C)NC(=O)[C@@H](Cc1c[nH]c2ccccc12)NC(=O)[C@H](Cc1ccc(O)cc1)NC(=O)[C@H](CO)NC(=O)[C@H](Cc1c[nH]c2ccccc12)NC(=O)[C@H](Cc1c[nH]cn1)NC(=O)[C@@H]1CCC(=O)N1 [D-Trp^6 Pro^9 Net--LHRH, pyroGlu--His--Trp--Ser--Tyr-- D-Trp--Leu--Arg--Pro--EA**]",–,–,–,–,59 ± 10,228 ± 41,184 ± 29,2260 ± 294,103 ± 9
